Inhibition and IC50 data for four compounds are collected here from ChEMBL document CHEMBL1949604, “Drug-like properties: guiding principles for the design of natural product libraries” (J Nat Prod, 2012).

Experiment [1] has as its system Trypanosoma brucei brucei. The experiment can be described thus: Antitrypanosomal activity against Trypanosoma brucei brucei at 80 uM. It is filed as functional.
The test system of experiment [2] is Trypanosoma brucei brucei. The experiment can be described thus: Antitrypanosomal activity against Trypanosoma brucei brucei. The format is functional, organism-based.

Molecules are shown by their SMILES.

`COC1=C(Br)[C@H](O)[C@@]2(C=C1Br)CC(C(=O)NCCCn1cnc(CCNC(=O)C3=NO[C@]4(C=C(Br)C(OC)=C(Br)[C@@H]4O)C3)c1)=NO2` [PSEUDOCERATINAZOLE A]: the inhibition (in general, how much of the control response was suppressed) at 80 µM in experiment [1] is 80%.

`c1ccc2c(c1)Nc1cc3cccnc3c3nccc-2c13`: 77 nM corresponded to half-maximal inhibition in experiment [2] (IC50).

Consider `c1ccc2c(c1)nc1c3nc4ccccc4c4ccnc(c5nccc2c51)c43` [EILATIN], for which, in experiment [2], 1330 nM corresponded to half-maximal inhibition (IC50).

Consider `O=C1c2cccnc2-c2nccc3c2c1nc1ccccc13` [ASCIDIDEMIN], for which it took 32 nM to reach half-maximal inhibition in experiment [2] (IC50).
